Results on 18 compounds are retold here after paper PMC11323223 (Bioorganic chemistry, 2022).

Structures are written as SMILES.

Holding throughout (assay): Fluorescence displacement binding assay
The target of test [1] is FABP5 (Homo sapiens, UniProt Q01469). Conditions: for Ki: read-out: FABP5 Ki, average ± S.E. of at least three independent experiments; for FABP5/7 SI (selectivity index): FABP5 over FABP7, from Ki values; for FABP5/3 SI (selectivity index): FABP5 over FABP3, from Ki values.
Test [2] addresses FABP3 (Homo sapiens, UniProt P05413). As to conditions: read-out: FABP3 Ki; average ± S.E. of at least three independent experiments.
Test [3] has as its target FABP7 (Homo sapiens, UniProt O15540). As to conditions: for Ki: read-out: FABP7 Ki, average ± S.E. of at least three independent experiments; for FABP7/3 SI (selectivity index): FABP7 over FABP3, from Ki values; for FABP7/5 SI (selectivity index): FABP7 over FABP5, from Ki values.

Chain of FABP7 (O15540 whole entry): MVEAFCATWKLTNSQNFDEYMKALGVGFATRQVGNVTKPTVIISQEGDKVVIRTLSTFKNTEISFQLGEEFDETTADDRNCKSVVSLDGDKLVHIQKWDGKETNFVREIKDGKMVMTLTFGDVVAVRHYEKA
Chain of FABP5 (Q01469 whole entry): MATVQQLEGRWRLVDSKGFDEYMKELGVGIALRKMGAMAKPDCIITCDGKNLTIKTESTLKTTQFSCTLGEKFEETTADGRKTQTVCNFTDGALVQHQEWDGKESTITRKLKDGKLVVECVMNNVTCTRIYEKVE
Chain of FABP3 (P05413 whole entry): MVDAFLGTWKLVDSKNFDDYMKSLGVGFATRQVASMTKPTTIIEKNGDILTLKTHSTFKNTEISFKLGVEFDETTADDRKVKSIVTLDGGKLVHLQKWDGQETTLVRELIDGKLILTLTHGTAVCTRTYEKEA

Turning to `COc1ccccc1C1C(C(=O)O)C(c2ccccc2OC)C1C(=O)Oc1cccc(-c2ccc(C#N)cc2)c1` (stereo not drawn) [α-20, α-3-(4′-Cyano-1,1′-biphenyl-3-yloxycarbonyl)-2,4-bis(2-methoxyphenyl)cyclobutane-1-carboxylic acid], the Ki (usually the equilibrium dissociation constant of an inhibitor or competing ligand from its target) in test [1] was found to be 1.74 ± 0.08 µM; in test [2], 4.64 ± 0.04 µM; in test [3], 3.16 ± 0.43 µM.
As for `O=C(O)C1C(c2ccccc2)C(C(=O)Oc2cccc(C3=CCOCC3)c2)C1c1ccccc1` (stereo not drawn) [α-21, α-3-(3-(3,6-Dihydro-2H-pyran-4-yl)phenoxycarbonyl)-2,4-diphenylcyclobutane-1-carboxylic acid], in test [1], the “FABP5/7 SI (selectivity index)” value was found to be 0.47 and the Ki stood at 1.75 ± 0.07 µM. For the same compound, the Ki in test [2] was found to be 67.9 ± 8.87 µM. Besides, in test [3], the “FABP7/3 SI (selectivity index)” value came to 81.8, the “FABP7/5 SI (selectivity index)” value is 2.1 and the Ki came to 0.83 ± 0.01 µM.
As to `COc1ccccc1C1C(C(=O)O)C(c2ccccc2OC)C1C(=O)OCC1(F)c2ccccc2-c2ccccc21` (stereo not drawn) [α-22, α-3-(9-Fluoro-9H-fluoren-9-yl)methoxycarbonyl-2,4-bis(2-methoxyphenyl)-cyclobutane-1-carboxylic acid], in test [1], the “FABP5/3 SI (selectivity index)” value amounted to 14.2, the “FABP5/7 SI (selectivity index)” value is recorded as 4.2 and the Ki was found to be 1.83 ± 0.27 µM. Besides, in test [2], the Ki is 25.9 ± 2.4 µM. Further, in test [3], the Ki was 7.72 ± 1.2 µM.
In the case of `COc1ccccc1C1C(C(=O)O)C(c2ccccc2OC)C1C(=O)OCc1cccc2ccccc12` (stereo not drawn) [α-23, α-3-(3-Naphthalen-1-ylmethoxycarbonyl)-2,4-bis(2-methoxyphenyl)cyclobutane-1-carboxylic acid], the Ki was 2.15 ± 0.17 µM in test [1], 52.6 ± 8.62 µM in test [2] and 8.04 ± 0.71 µM in test [3].
The corresponding values for `O=C(O)C1C(c2ccccc2)C(C(=O)OCc2cccc3ccccc23)C1c1ccccc1` (stereo not drawn) [α-24] are 2.64 ± 0.01 µM, 51.2 ± 5.71 µM and 10.2 ± 1.42 µM.
Regarding `COc1ccccc1C1C(C(=O)O)C(c2ccccc2OC)C1C(=O)Oc1ccccc1-c1ccc2c(c1)OCCO2` (stereo not drawn) [α-25, α-3-(2-(2,3-Dihydrobenzo[b][1,4]dioxin-6-yl)phenoxycarbonyl)-2,4-bis(2-methoxyphenyl)cyclobutane-1-carboxylic acid], the Ki in test [1] was 2.81 ± 0.42 µM. In test [2], the Ki amounted to 2.29 ± 0.56 µM. For the same compound, in test [3], the “FABP7/3 SI (selectivity index)” value came to 3.4, the “FABP7/5 SI (selectivity index)” value was 4.2 and the Ki stood at 0.67 ± 0.15 µM.
On to `COc1ccccc1C1C(C(=O)O)C(c2ccccc2OC)C1C(=O)OCC1(O)c2ccccc2-c2ccccc21` (stereo not drawn) [α-26, α-3-(9-Hydroxy-9H-fluoren-9-ylmethoxycarbonyl)-2,4-bis(2-methoxyphenyl)cyclobutane-1-carboxylic acid], for which the Ki in test [1] is 11.8 ± 1.64 µM; in test [2] it was 54.7 ± 3.43 µM; in test [3], 31 ± 2.47 µM.
Turning to `COc1ccccc1C1C(C(=O)O)C(c2ccccc2OC)C1C(=O)Oc1cccc(-c2cccc3c2OCCO3)c1` (stereo not drawn) [γ-6, γ-3-(3-(2,3-Dihydrobenzo[b][1,4]dioxin-5-yl)phenoxycarbonyl)-2,4-bis(2-methoxyphenyl)cyclobutane-1-carboxylic acid], in test [1], the “FABP5/3 SI (selectivity index)” value was 5.4, the “FABP5/7 SI (selectivity index)” value is on record as 1.4 and the Ki came out at 1.26 ± 0.12 µM. Besides, the Ki in test [2] is 6.86 ± 0.07 µM. Further, the inhibitory constant (Ki) in test [3] turned out to be 1.78 ± 0.45 µM.
`O=C1CCc2cc(-c3cccc(OC(=O)C4C(c5ccccc5)C(C(=O)O)C4c4ccccc4)c3)ccc2N1` (stereo not drawn) [γ-10, γ-3-(3-(2-Oxo-1,2,3,4-tetrahydroquinolin-6-yl)phenoxycarbonyl)-2,4-diphenyl-cyclobutane-1-carboxylic acid]: the figures for the Ki in test [1], in test [2] and in test [3] were 7.59 ± 1.11 µM, 4.07 ± 0.24 µM and 3.49 ± 0.49 µM, respectively.
As for `COc1ccccc1C1C(C(=O)O)C(c2ccccc2OC)C1C(=O)Oc1cccc(-c2ccc(F)cc2)c1` (stereo not drawn) [γ-13, γ-3-(4′-Fluoro-1,1′-biphenyl-3-yloxycarbonyl)-2,4-bis(2-methoxyphenyl)-cyclobutane-1-carboxylic acid], in test [1], the “FABP5/3 SI (selectivity index)” value turned out to be 3.4, the “FABP5/7 SI (selectivity index)” value is reported as 2.0 and the Ki was found to be 1.77 ± 0.02 µM. Further, the Ki in test [2] came out at 6.1 ± 1.34 µM. Moreover, in test [3], the Ki amounted to 3.59 ± 0.24 µM.
With `COc1ccccc1C1C(C(=O)O)C(c2ccccc2OC)C1C(=O)Oc1cccc(-c2ccc3c(c2)OCCO3)c1` (stereo not drawn) [γ-17, γ-3-(3-(2,3-Dihydrobenzo[b][1,4]dioxin-6-yl)phenoxycarbonyl)-2,4-bis(2-methoxyphenyl)cyclobutane-1-carboxylic acid], the inhibitory constant (Ki) in test [1] was determined as 3.69 ± 0.65 µM; in test [2], 8.18 ± 2.67 µM; in test [3], 5.12 ± 0.32 µM.
As to `COc1ccccc1C1C(C(=O)O)C(c2ccccc2OC)C1C(=O)Oc1cccc(-c2ccc(C#N)cc2)c1` (stereo not drawn) [γ-20, γ-3-(4′-Cyano-1,1′-biphenyl-3-yloxycarbonyl)-2,4-bis(2-methoxyphenyl)-cyclobutane-1-carboxylic acid], the figures for the Ki in test [1], in test [2] and in test [3] were 2.46 ± 0.19 µM, 27.9 ± 6.37 µM and 9.11 ± 1.47 µM, respectively.
On to `N#Cc1ccc(-c2ccccc2OC(=O)C2C(c3ccccc3)C(C(=O)O)C2c2ccccc2)cc1` (stereo not drawn) [γ-102, γ-3-(4′-Cyano-1,1′-biphenyl-2-yloxycarbonyl)-2,4-diphenylcyclobutane-1-carboxylic acid], for which, in test [1], the “FABP5/3 SI (selectivity index)” value was 4.2 and the Ki is 1.39 ± 0.07 µM. Besides, in test [2], the Ki stood at 5.78 ± 1.3 µM. Also, in test [3], the “FABP7/3 SI (selectivity index)” value was 6.1, the “FABP7/5 SI (selectivity index)” value stood at 1.5 and the Ki amounted to 0.95 ± 0.05 µM.
Take `O=C1Cc2cc(-c3cccc(OC(=O)C4C(c5ccccc5)C(C(=O)O)C4c4ccccc4)c3)ccc2N1` (stereo not drawn) [γ-104, γ-3-(3-(2-Oxoindolin-5-yl)phenoxycarbonyl)-2,4-diphenylcyclobutane-1-carboxylic acid]: the Ki in test [1] turned out to be 2.21 ± 0.43 µM; in test [2], 2.74 ± 0.44 µM; in test [3], 4.12 ± 0.32 µM.
The corresponding values for `COc1ccccc1C1C(C(=O)O)C(c2ccccc2OC)C1C(=O)Oc1ccccc1-c1ccc(C#N)cc1` (stereo not drawn) [γ-105, γ-3-(4′-Cyano-1,1′-biphenyl-2-yloxycarbonyl)-2,4-bis(2-methoxyphenyl)cyclobutane-1-carboxylic acid] are 2.81 ± 0.57 µM, 3.39 ± 0.63 µM and 1 ± 0.17 µM.
In the same order, the values of `O=C(O)C1C(c2ccccc2)C(C(=O)Oc2cccc(-c3ccc4ccc(=O)[nH]c4c3)c2)C1c1ccccc1` (stereo not drawn) [γ-108, γ-3-(3-(2-Oxo-1,2-dihydroquinolin-7-yl)phenoxycarbonyl)-2,4-diphenylcyclobutane-1-carboxylic acid] are 10.9 ± 2.81 µM, 4.02 ± 0.36 µM and 13.8 ± 1.3 µM.
With `COc1ccccc1C1C(C(=O)O)C(c2ccccc2OC)C1C(=O)Oc1ccc(OC)c2ccccc12` (stereo not drawn) [γ-109, γ-3-(4-Methoxynaphthalen-1-yloxycarbonyl)-2,4-bis(2-methoxyphenyl)cyclobutane-1-carboxylic acid], in test [1], the Ki is 26.6 ± 1.88 µM. Moreover, in test [2], the Ki was 3.5 ± 0.63 µM. For the same compound, in test [3], the “FABP7/3 SI (selectivity index)” value was 7.4, the “FABP7/5 SI (selectivity index)” value was found to be 56.6 and the Ki was found to be 0.47 ± 0.08 µM.
The corresponding values for `O=C(O)C1C(c2ccccc2)C(C(=O)OCc2ccccc2-c2ccccc2)C1c1ccccc1` (stereo not drawn) [ε-11, ε-3-(1,1′-Biphenyl-2-ylmethoxycarbonyl)-2,4-diphenylcyclobutane-1-carboxylic acid] are 1.45 ± 0.26 µM, 4.55 ± 0.64 µM, 25.3, 8.1 and 0.18 ± 0.01 µM.
